Test: xn = mol fraction of the nth substance listed

CC(=O)[O-].CCCC[N+](CCCC)(CCCC)CCCC + CCCCCCCCCCCCOS(=O)(=O)[O-].[Na+] + O
viscosity [mPa·s], 100 kPa
Details	x2 = 1.81e-06, x1 = 0.0001802	x2 = 3.61e-06, x1 = 0.0001802	x2 = 5.42e-06, x1 = 0.0001802	x2 = 7.23e-06, x1 = 0.0001802	x2 = 9.04e-06, x1 = 0.0001802	x2 = 1.084e-05, x1 = 0.0001802	x2 = 1.265e-05, x1 = 0.0001802	x2 = 1.446e-05, x1 = 0.0001802	x2 = 1.626e-05, x1 = 0.0001802	x2 = 1.807e-05, x1 = 0.0001802
293.15 K	0.997	1	1.004	1.004	1.006	1.007	1.007	1.008	1.008	1.008
298.15 K	0.89	0.893	0.894	0.894	0.898	0.901	0.902	0.903	0.904	0.904
303.15 K	0.756	0.758	0.76	0.763	0.764	0.765	0.766	0.768	0.768	0.769
308.15 K	0.679	0.68	0.681	0.683	0.684	0.684	0.686	0.687	0.688	0.688
313.15 K	0.605	0.606	0.606	0.608	0.609	0.609	0.611	0.612	0.612	0.613
318.15 K	0.569	0.572	0.572	0.574	0.575	0.575	0.577	0.578	0.578	0.579

CC(=O)[O-].CCCC[N+](CCCC)(CCCC)CCCC + CCCCCCCCCCCC[N+](C)(C)C.[Br-] + O
viscosity [mPa·s], 100 kPa
Details	x2 = 5.421e-05, x1 = 0.0001802	x2 = 0.0001084, x1 = 0.0001801	x2 = 0.0001626, x1 = 0.0001801	x2 = 0.0002168, x1 = 0.0001801	x2 = 0.000271, x1 = 0.0001801	x2 = 0.0003252, x1 = 0.0001801	x2 = 0.0003793, x1 = 0.0001801	x2 = 0.0004335, x1 = 0.0001801	x2 = 0.0004877, x1 = 0.0001801	x2 = 0.0005418, x1 = 0.0001801
293.15 K	1.029	1.031	1.032	1.033	1.034	1.034	1.035	1.035	1.035	1.035
298.15 K	0.916	0.919	0.92	0.922	0.924	0.926	0.928	0.929	0.93	0.931
303.15 K	0.808	0.81	0.813	0.816	0.817	0.82	0.82	0.82	0.822	0.821
308.15 K	0.724	0.726	0.727	0.729	0.729	0.73	0.731	0.731	0.732	0.732
313.15 K	0.657	0.659	0.662	0.664	0.665	0.667	0.667	0.668	0.669	0.669
318.15 K	0.607	0.607	0.609	0.61	0.611	0.613	0.613	0.617	0.618	0.619

O=S(=O)([O-])[O-].[Na+].[Na+] + CCCCCCCCCCCC[N+](C)(C)C.[Br-] + O
298.15 K, 101 kPa
Details	electrical conductivity [S/m]
x2 = 0, x1 = 0.0001802	0.219
x2 = 0, x1 = 0.001799	1.527
x2 = 1.98e-06, x1 = 0.0001802	0.2192
x2 = 4.2e-06, x1 = 0.001799	1.523
x2 = 6.31e-06, x1 = 0.0001802	0.2208
x2 = 1.064e-05, x1 = 0.0001802	0.2225
x2 = 1.241e-05, x1 = 0.001799	1.523
x2 = 1.516e-05, x1 = 0.0001802	0.2243
x2 = 2.061e-05, x1 = 0.001799	1.525
x2 = 2.201e-05, x1 = 0.0001802	0.2272
x2 = 2.882e-05, x1 = 0.001799	1.526
x2 = 3.067e-05, x1 = 0.0001802	0.231
x2 = 3.667e-05, x1 = 0.001799	1.528
x2 = 3.951e-05, x1 = 0.0001802	0.2348
x2 = 4.451e-05, x1 = 0.001799	1.531
x2 = 5.088e-05, x1 = 0.0001802	0.2397
x2 = 5.235e-05, x1 = 0.001799	1.533
x2 = 6.188e-05, x1 = 0.0001802	0.2448
x2 = 6.221e-05, x1 = 0.001799	1.536
x2 = 6.932e-05, x1 = 0.001799	1.538
x2 = 7.271e-05, x1 = 0.0001801	0.2498
x2 = 7.662e-05, x1 = 0.001799	1.54
x2 = 8.353e-05, x1 = 0.0001801	0.2543
x2 = 8.391e-05, x1 = 0.001799	1.542
x2 = 9.048e-05, x1 = 0.001799	1.544
x2 = 9.435e-05, x1 = 0.0001801	0.2592
x2 = 9.741e-05, x1 = 0.001799	1.546
x2 = 0.0001038, x1 = 0.001799	1.548
x2 = 0.0001048, x1 = 0.0001801	0.2637
x2 = 0.0001104, x1 = 0.001799	1.55
x2 = 0.0001153, x1 = 0.0001801	0.2682
x2 = 0.0001173, x1 = 0.001799	1.553
x2 = 0.0001239, x1 = 0.001799	1.556
x2 = 0.0001257, x1 = 0.0001801	0.2729
x2 = 0.0001315, x1 = 0.001799	1.56
x2 = 0.0001364, x1 = 0.0001801	0.2774
x2 = 0.0001404, x1 = 0.001799	1.563
x2 = 0.0001467, x1 = 0.0001801	0.2821
x2 = 0.0001478, x1 = 0.001798	1.565
x2 = 0.0001549, x1 = 0.001798	1.567
x2 = 0.0001569, x1 = 0.0001801	0.2866
x2 = 0.0001623, x1 = 0.001798	1.569
x2 = 0.0001672, x1 = 0.0001801	0.2912
x2 = 0.0001702, x1 = 0.001798	1.571
x2 = 0.0001775, x1 = 0.0001801	0.2956
x2 = 0.0001777, x1 = 0.001798	1.573
x2 = 0.0001851, x1 = 0.001798	1.575
x2 = 0.0001876, x1 = 0.0001801	0.3
x2 = 0.000193, x1 = 0.001798	1.577
x2 = 0.0001975, x1 = 0.0001801	0.3042
x2 = 0.0001997, x1 = 0.001798	1.579
x2 = 0.0002074, x1 = 0.001798	1.58
x2 = 0.0002076, x1 = 0.0001801	0.308
x2 = 0.000215, x1 = 0.001798	1.582
x2 = 0.0002175, x1 = 0.0001801	0.311
x2 = 0.000222, x1 = 0.001798	1.584
x2 = 0.0002275, x1 = 0.0001801	0.3132
x2 = 0.0002287, x1 = 0.001798	1.586
x2 = 0.0002358, x1 = 0.001798	1.588
x2 = 0.0002368, x1 = 0.0001801	0.3149
x2 = 0.0002431, x1 = 0.001798	1.589
x2 = 0.0002466, x1 = 0.0001801	0.3165
x2 = 0.0002504, x1 = 0.001798	1.591
x2 = 0.0002565, x1 = 0.0001801	0.3178
x2 = 0.0002612, x1 = 0.001798	1.594
x2 = 0.000266, x1 = 0.0001801	0.3191
x2 = 0.0002739, x1 = 0.001798	1.597
x2 = 0.0002776, x1 = 0.0001801	0.3205
x2 = 0.0002909, x1 = 0.0001801	0.322
x2 = 0.0003061, x1 = 0.0001801	0.3238
x2 = 0.0003232, x1 = 0.0001801	0.3257
x2 = 0.0003423, x1 = 0.0001801	0.3278
x2 = 0.0003636, x1 = 0.0001801	0.3305
x2 = 0.0003892, x1 = 0.0001801	0.3335

CC(C)C[C@H](N)C(=O)O + CCCCCCCCCCCC[N+](C)(C)Cc1ccccc1.[Cl-] + O
101 kPa, x1 = 0.00893, x2 = 0
Details	electrical conductivity [S/m]
293.15 K	0.00107
298.15 K	0.00125
303.15 K	0.00136
308.15 K	0.00152
313.15 K	0.00168

CC(C)[C@H](N)C(=O)O + CCCCCCCCCCCC[N+](C)(C)Cc1ccccc1.[Cl-] + O
electrical conductivity [S/m], 101 kPa
Details	293.15 K	298.15 K	303.15 K	308.15 K	313.15 K
x1 = 0.0008894, x2 = 0	0.000591	0.000675	0.000763	0.000854	0.000953
x1 = 0.001757, x2 = 0	0.00102	0.00116	0.00131	0.00147	0.00164

CCCCCCCCC(=O)O + CCCCCCCC[N+](CCCCCCCC)(CCCCCCCC)CCCCCCCC.[Br-]
Details	electrical conductivity [S/m]
298.1 K, 100 kPa, x2 = 0.333	4.5e-06

c1ccncc1 + CCCCCCCC[n+]1ccc2ccccc2c1.O=S(=O)([N-]S(=O)(=O)C(F)(F)F)C(F)(F)F
Details	viscosity [mPa·s]
338.15 K, 101 kPa, x1 = 1	0.54

Reference: the CheMixHub ionic liquid set
